Consider seven molecules from patent US10344060B2 (priority 2013, dated 2019).

What all share (assay): cell-based
One test has as its target hNav1.7 (Homo sapiens, UniProt Q15858). Type of test: cell-based. The settings on record: for pIC50: read-out: PX hNav1.7 Tonic IC50.
The next test addresses hNav1.6 (Homo sapiens, UniProt Q9UQD0). It is filed as cell-based. The following applies: Table 15; for Nav1.6/Nav1.7: ratio of PX tonic IC50 values; for pIC50: read-out: PX hNav1.6 Tonic IC50.
The target of test [1] is T1, hNav1.4 (Homo sapiens, UniProt P35499). It is filed as cell-based. The following applies: for pIC50: read-out: PX hNav1.4 Tonic IC50; for Nav1.4/Nav1.7: ratio of PX tonic IC50 values.
The target of test [2] is T2, hNav1.5 (Homo sapiens, UniProt Q14524). The settings on record: for pIC50: read-out: PX hNav1.5 Tonic IC50; for Nav1.5/Nav1.7: ratio of PX tonic IC50 values.
T2 sequence (Q14524 whole entry): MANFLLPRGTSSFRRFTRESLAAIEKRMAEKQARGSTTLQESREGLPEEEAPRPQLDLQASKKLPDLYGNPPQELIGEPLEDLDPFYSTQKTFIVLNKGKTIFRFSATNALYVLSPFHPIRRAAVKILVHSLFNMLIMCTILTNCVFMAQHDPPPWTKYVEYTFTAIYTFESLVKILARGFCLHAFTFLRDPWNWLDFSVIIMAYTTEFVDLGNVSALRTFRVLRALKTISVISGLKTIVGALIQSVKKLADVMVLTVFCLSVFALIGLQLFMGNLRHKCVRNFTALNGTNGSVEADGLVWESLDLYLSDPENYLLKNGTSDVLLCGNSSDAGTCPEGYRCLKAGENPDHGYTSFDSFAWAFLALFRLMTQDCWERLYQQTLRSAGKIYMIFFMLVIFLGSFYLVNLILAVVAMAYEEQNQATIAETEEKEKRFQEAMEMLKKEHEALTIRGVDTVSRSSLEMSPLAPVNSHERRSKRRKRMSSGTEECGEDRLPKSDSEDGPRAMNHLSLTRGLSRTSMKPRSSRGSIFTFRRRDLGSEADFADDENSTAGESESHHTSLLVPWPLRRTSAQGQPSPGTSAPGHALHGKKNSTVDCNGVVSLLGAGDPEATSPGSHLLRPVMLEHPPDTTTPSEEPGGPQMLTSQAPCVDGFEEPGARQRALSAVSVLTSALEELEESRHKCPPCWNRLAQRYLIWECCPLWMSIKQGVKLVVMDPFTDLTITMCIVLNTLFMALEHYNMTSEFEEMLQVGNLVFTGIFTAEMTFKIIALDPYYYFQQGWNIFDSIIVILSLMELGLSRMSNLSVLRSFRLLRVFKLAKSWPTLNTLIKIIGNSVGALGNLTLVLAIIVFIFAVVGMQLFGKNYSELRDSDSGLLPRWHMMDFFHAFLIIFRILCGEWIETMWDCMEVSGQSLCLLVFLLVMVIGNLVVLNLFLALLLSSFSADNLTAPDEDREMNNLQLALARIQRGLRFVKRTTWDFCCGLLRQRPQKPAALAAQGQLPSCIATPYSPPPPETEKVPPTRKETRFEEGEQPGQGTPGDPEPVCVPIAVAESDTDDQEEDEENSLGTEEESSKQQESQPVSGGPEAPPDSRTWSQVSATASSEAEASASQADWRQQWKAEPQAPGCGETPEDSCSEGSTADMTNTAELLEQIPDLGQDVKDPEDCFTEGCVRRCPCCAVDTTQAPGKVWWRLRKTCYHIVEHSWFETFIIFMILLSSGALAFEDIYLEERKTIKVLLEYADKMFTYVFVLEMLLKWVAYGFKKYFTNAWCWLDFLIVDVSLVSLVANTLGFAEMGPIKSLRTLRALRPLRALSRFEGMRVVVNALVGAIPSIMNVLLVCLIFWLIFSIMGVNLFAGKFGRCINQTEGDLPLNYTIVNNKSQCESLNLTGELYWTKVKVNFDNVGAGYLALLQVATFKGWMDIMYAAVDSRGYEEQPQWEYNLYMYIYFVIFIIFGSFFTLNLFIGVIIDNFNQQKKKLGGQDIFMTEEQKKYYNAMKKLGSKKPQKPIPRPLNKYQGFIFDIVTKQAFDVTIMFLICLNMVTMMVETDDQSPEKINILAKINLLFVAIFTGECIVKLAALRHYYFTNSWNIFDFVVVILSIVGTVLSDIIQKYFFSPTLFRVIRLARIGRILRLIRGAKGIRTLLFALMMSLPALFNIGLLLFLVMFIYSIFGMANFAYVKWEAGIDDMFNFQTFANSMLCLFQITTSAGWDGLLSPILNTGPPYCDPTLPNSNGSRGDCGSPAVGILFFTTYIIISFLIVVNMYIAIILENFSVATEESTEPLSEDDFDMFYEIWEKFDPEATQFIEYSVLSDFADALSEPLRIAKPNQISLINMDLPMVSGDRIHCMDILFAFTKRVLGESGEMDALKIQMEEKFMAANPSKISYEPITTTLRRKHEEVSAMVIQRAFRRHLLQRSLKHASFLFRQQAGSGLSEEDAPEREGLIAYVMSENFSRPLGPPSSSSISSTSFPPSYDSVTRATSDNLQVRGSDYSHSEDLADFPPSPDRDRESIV
Test [3] deals with T2, hNav1.5. The settings on record: IonWorks Quattro; Table 9; read-out: IC50 (μM) Nav1.5. In general terms: The patch-clamp technique gives a direct electrical read-out from membranes.
The next test has as its target hNav1.3 (Homo sapiens, UniProt Q9NY46). The following applies: IonWorks Quattro; Table 9; read-out: IC50 (μM) Nav1.3.
In test [4] the target is T1, hNav1.4. Type of test: cell-based. The settings on record: Table 9; for IC50: IonWorks Quattro, read-out: IC50 (μM) Nav1.4; for Nav1.4/Nav1.7: ratio of IonWorks Quattro IC50 values.
The mark [5] stands for this setting: ratio of PX tonic IC50 values, Table 11.
The mark [6] stands for this setting: Table 12, PatchXpress, tonic block.

pIC50: −log10 of the molar value. Where “and” joins values, the source holds several entries; their conditions need not be identical. Equal values may be shown once. Read-outs that look alike come from different tables or passages of the source.

Chain of hNav1.3 (Q9NY46 whole entry): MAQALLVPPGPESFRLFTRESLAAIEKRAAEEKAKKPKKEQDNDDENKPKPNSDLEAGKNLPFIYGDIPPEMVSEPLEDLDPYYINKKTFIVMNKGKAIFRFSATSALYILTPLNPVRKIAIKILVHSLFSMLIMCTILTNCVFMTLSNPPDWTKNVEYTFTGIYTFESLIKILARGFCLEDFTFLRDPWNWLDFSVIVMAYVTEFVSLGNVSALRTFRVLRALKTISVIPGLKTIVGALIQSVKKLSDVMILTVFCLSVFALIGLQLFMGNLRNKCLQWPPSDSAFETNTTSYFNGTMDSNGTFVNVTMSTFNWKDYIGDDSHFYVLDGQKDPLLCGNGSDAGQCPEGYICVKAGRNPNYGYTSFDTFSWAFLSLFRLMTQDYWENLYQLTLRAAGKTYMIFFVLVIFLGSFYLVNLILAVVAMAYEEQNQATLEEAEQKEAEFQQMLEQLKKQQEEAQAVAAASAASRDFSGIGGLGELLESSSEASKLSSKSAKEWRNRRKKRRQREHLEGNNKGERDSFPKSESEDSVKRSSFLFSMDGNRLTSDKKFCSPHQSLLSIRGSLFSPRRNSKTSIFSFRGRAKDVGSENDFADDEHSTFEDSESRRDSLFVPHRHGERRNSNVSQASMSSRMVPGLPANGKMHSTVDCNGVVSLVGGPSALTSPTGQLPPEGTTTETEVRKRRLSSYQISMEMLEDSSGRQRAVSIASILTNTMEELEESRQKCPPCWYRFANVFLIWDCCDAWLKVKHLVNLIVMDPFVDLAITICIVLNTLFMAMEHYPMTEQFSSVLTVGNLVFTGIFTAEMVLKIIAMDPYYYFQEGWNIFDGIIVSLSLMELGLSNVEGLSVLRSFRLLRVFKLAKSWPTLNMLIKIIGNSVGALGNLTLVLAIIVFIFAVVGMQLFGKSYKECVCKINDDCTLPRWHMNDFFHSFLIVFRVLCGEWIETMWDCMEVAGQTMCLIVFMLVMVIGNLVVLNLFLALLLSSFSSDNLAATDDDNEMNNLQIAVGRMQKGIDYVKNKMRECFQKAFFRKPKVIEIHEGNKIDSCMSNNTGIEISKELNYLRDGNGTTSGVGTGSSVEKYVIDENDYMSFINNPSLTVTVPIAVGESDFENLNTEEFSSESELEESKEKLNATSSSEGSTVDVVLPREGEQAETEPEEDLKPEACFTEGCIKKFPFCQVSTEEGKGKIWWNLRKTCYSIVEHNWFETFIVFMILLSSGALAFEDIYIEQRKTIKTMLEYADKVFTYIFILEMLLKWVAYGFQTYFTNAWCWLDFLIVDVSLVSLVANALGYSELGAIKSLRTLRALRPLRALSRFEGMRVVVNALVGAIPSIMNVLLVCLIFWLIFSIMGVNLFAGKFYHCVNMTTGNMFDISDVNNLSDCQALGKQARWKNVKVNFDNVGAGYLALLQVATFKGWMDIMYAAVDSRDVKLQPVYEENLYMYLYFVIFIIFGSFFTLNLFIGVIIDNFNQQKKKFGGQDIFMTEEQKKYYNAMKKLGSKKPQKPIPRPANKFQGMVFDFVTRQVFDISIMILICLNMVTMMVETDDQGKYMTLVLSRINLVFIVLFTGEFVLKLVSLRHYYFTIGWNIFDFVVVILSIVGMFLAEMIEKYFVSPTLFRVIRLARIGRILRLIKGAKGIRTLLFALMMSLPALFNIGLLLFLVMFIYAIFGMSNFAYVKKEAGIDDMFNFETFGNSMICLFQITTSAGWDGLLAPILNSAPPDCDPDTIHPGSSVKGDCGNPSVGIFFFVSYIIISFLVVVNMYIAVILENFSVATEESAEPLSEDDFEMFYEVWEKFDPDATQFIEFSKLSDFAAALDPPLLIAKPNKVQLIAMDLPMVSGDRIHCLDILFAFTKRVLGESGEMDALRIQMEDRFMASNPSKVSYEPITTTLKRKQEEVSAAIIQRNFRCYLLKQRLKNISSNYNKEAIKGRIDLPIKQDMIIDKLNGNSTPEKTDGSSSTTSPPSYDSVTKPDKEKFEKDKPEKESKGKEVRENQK

Turning to `CCCC[C@@H]1NC(=O)[C@H](Cc2c[nH]c3ccccc23)NC(=O)[C@H](CCCCN)NC(=O)[C@H](CCC(N)=O)NC(=O)[C@@H](NC(=O)[C@H](Cc2ccc(O)cc2)NC(=O)[C@@H](N)CCC(=O)O)CSSC[C@@H]2NC(=O)[C@@H]3CSSC[C@@H](C(=O)N[C@@H](CCCNC(=N)N)C(=O)N[C@@H](CCCCN)C(=O)N[C@@H](CCC(=O)O)C(=O)N[C@H](C(N)=O)[C@@H](C)CC)NC(=O)[C@H](Cc4c[nH]c5ccccc45)NC(=O)[C@H](CC(C)C)NC(=O)[C@H](CCCCN)NC(=O)[C@H](CSSC[C@H](NC(=O)[C@H]([C@@H](C)O)NC(=O)[C@H](Cc4c[nH]c5ccccc45)NC1=O)C(=O)N[C@@H](CC(=O)O)C(=O)N[C@@H](CO)C(=O)N[C@@H](CCCCN)C(=O)N[C@@H](CCCNC(=N)N)C(=O)N[C@@H](C)C(=O)N3)NC(=O)[C@H](CCCNC(=N)N)NC(=O)[C@H](CC(C)C)NC(=O)CNC(=O)[C@H](CCC(=O)O)NC2=O` [compound 708], the pIC50 (as a rule, the negative decadic logarithm of the IC50, by convention in mol/L) at hNav1.7 (PatchXpress, tonic, Table 11) is 9.12; at hNav1.6, 6.28; at hNav1.4 [1] (PatchXpress, tonic, Table 11), 7.00; at hNav1.5 [2] (PatchXpress, tonic, Table 11), 5.12. In addition, the Nav1.4/Nav1.7 at hNav1.7 (setting [5]) was 130. Besides, the Nav1.5/Nav1.7 on hNav1.7 (setting [5]) was 9941. Further, the Nav1.6/Nav1.7 on hNav1.6 is 682.

Take `CCCC[C@@H]1NC(=O)[C@H](Cc2c[nH]c3ccccc23)NC(=O)[C@H](CCCCN)NC(=O)[C@H](CCC(N)=O)NC(=O)[C@@H](NC(=O)[C@@H](N)Cc2ccc(O)cc2)CSSC[C@@H]2NC(=O)[C@@H]3CSSC[C@@H](C(=O)N[C@@H](CCCNC(=N)N)C(=O)N[C@@H](CCCCN)C(=O)N[C@H](C(=O)N[C@H](C(N)=O)[C@@H](C)CC)[C@@H](C)CC)NC(=O)[C@H](Cc4c[nH]c5ccccc45)NC(=O)[C@H](CC(C)C)NC(=O)[C@H](CCCCN)NC(=O)[C@H](CSSC[C@H](NC(=O)[C@H]([C@@H](C)O)NC(=O)[C@H](Cc4c[nH]c5ccccc45)NC1=O)C(=O)N[C@@H](CC(=O)O)C(=O)N[C@@H](Cc1cn(CCCOCCOCCOCCOCCOCCOCCOCCOCCOCCOCCN)nn1)C(=O)N[C@@H](CCCCN)C(=O)N[C@@H](CCCNC(=N)N)C(=O)N[C@@H](C)C(=O)N3)NC(=O)[C@H](CCCNC(=N)N)NC(=O)[C@H](CC(C)C)NC(=O)CNC(=O)[C@H](CCC(=O)O)NC2=O` [compound 256]: the IC50 – broadly, the concentration at which inhibition is half-maximal – at hNav1.5 [3] was above 5 µM; on hNav1.3 it was 0.2 µM and 0.4 µM; at hNav1.4 [4], 0.4 µM and 0.5 µM. In addition, the pIC50 at hNav1.7 is 8.03; at hNav1.4 [1], 7.57; at hNav1.5 [2] it was 5.73. Moreover, the Nav1.4/Nav1.7 on hNav1.4 [4] was 4; on hNav1.4 [1] (Table 13), 3. Besides, the Nav1.5/Nav1.7 on hNav1.5 [2] (Table 13) was found to be 200.

Consider `C#CC[C@@H]1NC(=O)[C@H](CCCNC(=N)N)NC(=O)[C@H](CCCCN)NC(=O)[C@H](CO)NC(=O)[C@H](CC(=O)O)NC(=O)[C@@H]2CSSC[C@@H]3NC(=O)[C@H](CCCNC(=N)N)NC(=O)[C@H](CC(C)C)NC(=O)CNC(=O)[C@H](CCC(=O)O)NC(=O)[C@H](CSSC[C@H](NC(=O)[C@@H](N)Cc4ccc(O)cc4)C(=O)N[C@@H](CCC(N)=O)C(=O)N[C@@H](CCCCN)C(=O)N[C@@H](Cc4c[nH]c5ccccc45)C(=O)N[C@@H](CCCC)C(=O)N[C@@H](Cc4c[nH]c5ccccc45)C(=O)N[C@@H]([C@@H](C)O)C(=O)N2)NC(=O)[C@H](CSSC[C@@H](C(=O)N[C@@H](CCCNC(=N)N)C(=O)N[C@@H](CCCCN)C(=O)N[C@H](C(=O)N[C@H](C(N)=O)[C@@H](C)CC)[C@@H](C)CC)NC(=O)[C@H](Cc2c[nH]c4ccccc24)NC(=O)[C@H](CC(C)C)NC(=O)[C@H](CCCCN)NC3=O)NC1=O` [compound 283], for which the Nav1.4/Nav1.7 is recorded as 1 on hNav1.4 [4] and 17 at hNav1.4 [1] (Table 12). Also, the Nav1.5/Nav1.7 at hNav1.5 [2] (Table 12) was 2090.

Take `C#CC[C@H](N)C(=O)N[C@@H](CCC(=O)O)C(=O)N[C@H]1CSSC[C@@H]2NC(=O)[C@@H]3CSSC[C@@H](C(=O)N[C@@H](CCCNC(=N)N)C(=O)N[C@@H](CCCCN)C(=O)N[C@@H](CCC(=O)O)C(=O)N[C@H](C(N)=O)[C@@H](C)CC)NC(=O)[C@H](Cc4c[nH]c5ccccc45)NC(=O)[C@H](CC(C)C)NC(=O)[C@H](CCCCN)NC(=O)[C@H](CSSC[C@H](NC(=O)[C@H]([C@@H](C)O)NC(=O)[C@H](Cc4c[nH]c5ccccc45)NC(=O)[C@H](CCCC)NC(=O)[C@H](Cc4c[nH]c5ccccc45)NC(=O)[C@H](CCCCN)NC(=O)[C@H](CCC(N)=O)NC1=O)C(=O)N[C@@H](CC(=O)O)C(=O)N[C@@H](CO)C(=O)N[C@@H](CCCCN)C(=O)N[C@@H](CCCNC(=N)N)C(=O)N[C@@H](C)C(=O)N3)NC(=O)[C@H](CCCNC(=N)N)NC(=O)[C@H](CC(C)C)NC(=O)CNC(=O)[C@H](CCC(=O)O)NC2=O` [compound 709]: the pIC50 was 8.95 at hNav1.7 (setting [6]), 6.23 on hNav1.6, 6.73 at hNav1.4 [1] (setting [6]) and below 6.00 at hNav1.5 [2] (setting [6]). Moreover, the Nav1.6/Nav1.7 on hNav1.6 was 518. In addition, on hNav1.4 [1] (Table 12), the Nav1.4/Nav1.7 is on record as 164. Further, on hNav1.5 [2] (Table 12), the Nav1.5/Nav1.7 is above 887.

As for `C#CC[C@H](N)C(=O)N[C@@H](Cc1ccc(O)cc1)C(=O)N[C@H]1CSSC[C@@H]2NC(=O)[C@@H]3CSSC[C@@H](C(=O)N[C@@H](CCCNC(=N)N)C(=O)N[C@@H](CCCCN)C(=O)N[C@@H](CCC(=O)O)C(=O)N[C@H](C(N)=O)[C@@H](C)CC)NC(=O)[C@H](Cc4c[nH]c5ccccc45)NC(=O)[C@H](CC(C)C)NC(=O)[C@H](CCCCN)NC(=O)[C@H](CSSC[C@H](NC(=O)[C@H]([C@@H](C)O)NC(=O)[C@H](Cc4c[nH]c5ccccc45)NC(=O)[C@H](CCCC)NC(=O)[C@H](Cc4c[nH]c5ccccc45)NC(=O)[C@H](CCCCN)NC(=O)[C@H](CCC(N)=O)NC1=O)C(=O)N[C@@H](CC(=O)O)C(=O)N[C@@H](CCC(=O)O)C(=O)N[C@@H](CCCCN)C(=O)N[C@@H](CCCNC(=N)N)C(=O)N[C@@H](C)C(=O)N3)NC(=O)[C@H](CCCNC(=N)N)NC(=O)[C@H](CC(C)C)NC(=O)CNC(=O)[C@H](CCC(=O)O)NC2=O` [compound 714], the Nav1.6/Nav1.7 at hNav1.6 turned out to be 737. Moreover, the Nav1.4/Nav1.7 at hNav1.4 [1] (Table 12) turned out to be 241. The Nav1.5/Nav1.7 on hNav1.5 [2] (Table 12) is recorded as above 6341.

On to `CCCC[C@@H]1NC(=O)[C@H](Cc2c[nH]c3ccccc23)NC(=O)[C@H](CCCCN)NC(=O)[C@H](CCC(N)=O)NC(=O)[C@@H](NC(=O)[C@@H](N)Cc2cn(CCCOCCOCCOCCOCCOCCOCCOCCOCCOCCOCCN)nn2)CSSC[C@@H]2NC(=O)[C@@H]3CSSC[C@@H](C(=O)N[C@@H](CCCNC(=N)N)C(=O)N[C@@H](CCCCN)C(=O)N[C@H](C(=O)N[C@H](C(N)=O)[C@@H](C)CC)[C@@H](C)CC)NC(=O)[C@H](Cc4c[nH]c5ccccc45)NC(=O)[C@H](CC(C)C)NC(=O)[C@H](CCCCN)NC(=O)[C@H](CSSC[C@H](NC(=O)[C@H]([C@@H](C)O)NC(=O)[C@H](Cc4c[nH]c5ccccc45)NC1=O)C(=O)N[C@@H](CC(=O)O)C(=O)N[C@@H](CO)C(=O)N[C@@H](CCCCN)C(=O)N[C@@H](CCCNC(=N)N)C(=O)N[C@@H](C)C(=O)N3)NC(=O)[C@H](CCCNC(=N)N)NC(=O)[C@H](CC(C)C)NC(=O)CNC(=O)[C@H](CCC(=O)O)NC2=O` [compound 248], for which the IC50 is above 7 µM on hNav1.5 [3]; 0.16 µM and 0.13 µM on hNav1.3; 0.39 µM and 0.45 µM at hNav1.4 [4]. The pIC50 at hNav1.7 was 9.00; on hNav1.4 [1] it was 7.82; on hNav1.5 [2], 6.02. Besides, the Nav1.4/Nav1.7 at hNav1.4 [4] was 4 and 3; at hNav1.4 [1] (Table 13), 15. Also, the Nav1.5/Nav1.7 on hNav1.5 [2] (Table 13) turned out to be 946.

On to `CCCC[C@@H]1NC(=O)[C@H](Cc2c[nH]c3ccccc23)NC(=O)[C@H](CCCCN)NC(=O)[C@H](CCC(N)=O)NC(=O)[C@@H](NC(=O)[C@H](Cc2ccc(O)cc2)NC(=O)[C@@H](N)Cc2cn(CCCCCCNC(=O)CCOCCOCCOCCOCCNC(=O)CCCC[C@@H]3SC[C@@H]4NC(=O)N[C@@H]43)nn2)CSSC[C@@H]2NC(=O)[C@@H]3CSSC[C@@H](C(=O)N[C@@H](CCCNC(=N)N)C(=O)N[C@@H](CCCCN)C(=O)N[C@H](C(=O)N[C@H](C(N)=O)[C@@H](C)CC)[C@@H](C)CC)NC(=O)[C@H](Cc4c[nH]c5ccccc45)NC(=O)[C@H](CC(C)C)NC(=O)[C@H](CCCCN)NC(=O)[C@H](CSSC[C@H](NC(=O)[C@H]([C@@H](C)O)NC(=O)[C@H](Cc4c[nH]c5ccccc45)NC1=O)C(=O)N[C@@H](CC(=O)O)C(=O)N[C@@H](CO)C(=O)N[C@@H](CCCCN)C(=O)N[C@@H](CCCNC(=N)N)C(=O)N[C@@H](C)C(=O)N3)NC(=O)[C@H](CCCNC(=N)N)NC(=O)[C@H](CC(C)C)NC(=O)CNC(=O)[C@H](CCC(=O)O)NC2=O` [compound 898], for which the pIC50 at hNav1.7 is 8.61; at hNav1.4 [1] it was 7.81; at hNav1.5 [2], 5.29. Besides, the Nav1.4/Nav1.7 at hNav1.4 [1] (Table 13) worked out at 6. In addition, the Nav1.5/Nav1.7 on hNav1.5 [2] (Table 13) is listed as 2067.
